Square brackets hold non-standard residues; d marks the D form. Peptide text beside a SMILES is read from it. * marks the point of attachment. Phe(4-guanidino) = N=C(N)Nc1ccc(C[C@H](N)C(=O)O)cc1; Bip = N[C@@H](Cc1ccc(-c2ccccc2)cc1)C(=O)O; Phe(4-CN) = N#Cc1ccc(C[C@H](N)C(=O)O)cc1; Phe(4-Cl) = N[C@@H](Cc1ccc(Cl)cc1)C(=O)O; Phe(4-Me) = Cc1ccc(C[C@H](N)C(=O)O)cc1; NMeR = CN[C@@H](CCCNC(=N)N)C(=O)O; hPhe = N[C@@H](CCc1ccccc1)C(=O)O; NMeK = CN[C@@H](CCCCN)C(=O)O; NMeNle = CCCC[C@H](NC)C(=O)O; Phg = N[C@H](C(=O)O)c1ccccc1; dNle = CCCC[C@@H](N)C(=O)O; Nle = CCCC[C@H](N)C(=O)O; Bz = O=C(c1ccccc1)*
Molecular target: Genome polyprotein (dengue virus type 2, UniProt P29990)
Sequence (P29990 1346-1475 limits assumed): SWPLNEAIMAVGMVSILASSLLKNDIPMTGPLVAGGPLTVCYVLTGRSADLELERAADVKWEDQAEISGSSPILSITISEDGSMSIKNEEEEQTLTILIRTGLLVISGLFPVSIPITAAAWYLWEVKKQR
Sequence (P29990 1476-2093 limits assumed): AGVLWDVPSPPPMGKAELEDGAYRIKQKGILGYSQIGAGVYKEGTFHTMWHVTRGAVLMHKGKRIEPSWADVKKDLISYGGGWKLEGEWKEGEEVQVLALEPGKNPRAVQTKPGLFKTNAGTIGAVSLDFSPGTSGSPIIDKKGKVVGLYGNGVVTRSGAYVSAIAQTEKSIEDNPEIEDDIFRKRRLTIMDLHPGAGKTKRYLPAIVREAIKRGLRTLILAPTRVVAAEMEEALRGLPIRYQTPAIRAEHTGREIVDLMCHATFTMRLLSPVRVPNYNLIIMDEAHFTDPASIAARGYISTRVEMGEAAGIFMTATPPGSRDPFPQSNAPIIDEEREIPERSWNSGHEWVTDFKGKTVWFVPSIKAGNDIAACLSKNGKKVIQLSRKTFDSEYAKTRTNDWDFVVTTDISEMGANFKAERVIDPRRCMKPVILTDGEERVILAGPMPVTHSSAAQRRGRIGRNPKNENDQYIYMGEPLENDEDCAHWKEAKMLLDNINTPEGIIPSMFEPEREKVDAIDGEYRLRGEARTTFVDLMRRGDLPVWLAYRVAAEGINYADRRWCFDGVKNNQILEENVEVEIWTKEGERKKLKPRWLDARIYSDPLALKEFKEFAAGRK
Experiment: Inhibitory activity against dengue 2 NS3 protease fused via a linker to region of NS2B

| SMILES | Ki |
| --- | --- |
| C[C@H](NC(=O)c1ccccc1)C(=O)N[C@@H](CCCCN)C(=O)N[C@@H](CCCN=C(N)N)C(=O)N[C@H](C=O)CCCN=C(N)N (Bz-AKRR-aldehyde) | 5.3 µM |
| NC(N)=NCCC[C@@H](C=O)NC(=O)[C@H](CCCN=C(N)N)NC(=O)c1ccccc1 (Bz-Arg-Arg-aldehyde) | 12 µM |
| NCCCC[C@H](NC(=O)[C@H](Cc1ccccc1)NC(=O)c1ccccc1)C(=O)N[C@@H](CCCN=C(N)N)C(=O)N[C@H](C=O)CCCN=C(N)N (Bz-FKRR-aldehyde) | 6.8 µM |
| NCCCC[C@H](NC(=O)c1ccccc1)C(=O)N[C@@H](CCCN=C(N)N)C(=O)N[C@H](C=O)CCCN=C(N)N (Bz-Lys-Arg-Arg-aldehyde) | 1.5 µM |
| CCCC[C@@H](C(=O)N[C@@H](CCCCN)C(=O)N[C@@H](CCCN=C(N)N)C(=O)N[C@H](C=O)CCCN=C(N)N)N(C)C(=O)c1ccccc1 (Bz-[NMeNle]KRR-aldehyde) | 43.7 µM |
| CCCC[C@H](NC(=O)c1ccccc1)C(=O)N[C@@H](C)C(=O)N[C@@H](CCCN=C(N)N)C(=O)N[C@H](C=O)CCCN=C(N)N (Bz-[Nle]ARR-aldehyde) | 22.1 µM |
| CCCC[C@H](NC(=O)c1ccccc1)C(=O)N[C@@H](Cc1ccccc1)C(=O)N[C@@H](CCCN=C(N)N)C(=O)N[C@H](C=O)CCCN=C(N)N (Bz-[Nle]FRR-aldehyde) | 15.8 µM |
| CCCC[C@H](NC(=O)c1ccccc1)C(=O)N[C@@H](CCCCN)C(=O)N[C@@H](C)C(=O)N[C@H](C=O)CCCN=C(N)N (Bz-[Nle]KAR-aldehyde) | > 500 µM |
| CCCC[C@H](NC(=O)c1ccccc1)C(=O)N[C@@H](CCCCN)C(=O)N[C@@H](Cc1ccccc1)C(=O)N[C@H](C=O)CCCNC(=N)N (Bz-[Nle]KFR-aldehyde) | 40.7 µM |
| CCCC[C@H](NC(=O)c1ccccc1)C(=O)N[C@@H](CCCCN)C(=O)N[C@@H](CCCCN)C(=O)N[C@H](C=O)CCCNC(=N)N (Bz-[Nle]KKR-aldehyde) | 41.3 µM |
| CCCC[C@H](NC(=O)c1ccccc1)C(=O)N[C@@H](CCCCN)C(=O)N1CCC[C@H]1C(=O)N[C@H](C=O)CCCN=C(N)N (Bz-[Nle]KPR-aldehyde) | 109 µM |
| CCCC[C@H](NC(=O)c1ccccc1)C(=O)N[C@@H](CCCCN)C(=O)N[C@@H](CCCN=C(N)N)C(=O)N[C@@H](C)C=O (Bz-[Nle]KRA-aldehyde) | 193 µM |
| CCCC[C@H](NC(=O)c1ccccc1)C(=O)N[C@@H](CCCCN)C(=O)N[C@@H](CCCN=C(N)N)C(=O)N[C@H](C=O)Cc1ccccc1 (Bz-[Nle]KRF-aldehyde) | 15.9 µM |
| CCCC[C@H](NC(=O)c1ccccc1)C(=O)N[C@@H](CCCCN)C(=O)N[C@@H](CCCN=C(N)N)C(=O)N[C@H](C=O)CCCCN (Bz-[Nle]KRK-aldehyde) | 20.5 µM |
| CCCC[C@H](NC(=O)c1ccccc1)C(=O)N[C@@H](CCCCN)C(=O)N[C@@H](CCCNC(=N)N)C(=O)N[C@H](C=O)CCCNC(=N)N (Bz-[Nle]KRR-aldehyde) | 5.8 µM |
| CCCC[C@H](NC(=O)c1ccccc1)C(=O)N[C@@H](CCCCN)C(=O)N[C@@H](CCCN=C(N)N)C(=O)N[C@H](C=O)Cc1c[nH]c2ccccc12 (Bz-[Nle]KRW-aldehyde) | 7.5 µM |
| CCCC[C@H](NC(=O)c1ccccc1)C(=O)N[C@@H](CCCCN)C(=O)N[C@@H](CCCN=C(N)N)C(=O)N[C@H](C=O)Cc1ccc(-c2ccccc2)cc1 (Bz-[Nle]KR[Bip]-aldehyde) | 11.6 µM |
| CCCC[C@H](NC(=O)c1ccccc1)C(=O)N[C@@H](CCCCN)C(=O)N[C@@H](CCCN=C(N)N)C(=O)N[C@H](C=O)Cc1ccc(C#N)cc1 (Bz-[Nle]KR[Phe(4-CN)]-aldehyde) | 18.6 µM |
| CCCC[C@H](NC(=O)c1ccccc1)C(=O)N[C@@H](CCCCN)C(=O)N[C@@H](CCCN=C(N)N)C(=O)N[C@H](C=O)Cc1ccc(Cl)cc1 (Bz-[Nle]KR[Phe(4-Cl)]-aldehyde) | 138 µM |
| CCCC[C@H](NC(=O)c1ccccc1)C(=O)N[C@@H](CCCCN)C(=O)N[C@@H](CCCN=C(N)N)C(=O)N[C@H](C=O)Cc1ccc(C)cc1 (Bz-[Nle]KR[Phe(4-Me)]-aldehyde) | 6 µM |
| CCCC[C@H](NC(=O)c1ccccc1)C(=O)N[C@@H](CCCCN)C(=O)N[C@@H](CCCNC(=N)N)C(=O)N[C@H](C=O)Cc1ccc(NC(=N)N)cc1 (Bz-[Nle]KR[Phe(4-guanidino)]-aldehyde) | 2.8 µM |
| CCCC[C@H](NC(=O)c1ccccc1)C(=O)N[C@@H](CCCCN)C(=O)N[C@@H](CCCN=C(N)N)C(=O)N[C@H](C=O)c1ccccc1 (Bz-[Nle]KR[Phg]-aldehyde) | 33 µM |
| CCCC[C@H](NC(=O)c1ccccc1)C(=O)N[C@@H](CCCCN)C(=O)N[C@@H](CCCN=C(N)N)C(=O)N[C@@H](C=O)CCCN=C(N)N (Bz-[Nle]KR[dR]-aldehyde) | 51 µM |
| CCCC[C@H](NC(=O)c1ccccc1)C(=O)N[C@@H](CCCCN)C(=O)N[C@@H](CCCN=C(N)N)C(=O)N[C@H](C=O)CCc1ccccc1 (Bz-[Nle]KR[hPhe]-aldehyde) | > 500 µM |
| CCCC[C@H](NC(=O)c1ccccc1)C(=O)N[C@@H](CCCCN)C(=O)N(C)[C@@H](CCCN=C(N)N)C(=O)N[C@H](C=O)CCCN=C(N)N (Bz-[Nle]K[NMeR]R-aldehyde) | 47.4 µM |
| CCCC[C@H](NC(=O)c1ccccc1)C(=O)N[C@@H](CCCCN)C(=O)N[C@H](CCCN=C(N)N)C(=O)N[C@H](C=O)CCCN=C(N)N (Bz-[Nle]K[dR]R-aldehyde) | 115 µM |
| CCCC[C@H](NC(=O)c1ccccc1)C(=O)N1CCC[C@H]1C(=O)N[C@@H](CCCN=C(N)N)C(=O)N[C@H](C=O)CCCN=C(N)N (Bz-[Nle]PRR-aldehyde) | 61.4 µM |
| CCCC[C@H](NC(=O)c1ccccc1)C(=O)N(C)[C@@H](CCCCN)C(=O)N[C@@H](CCCN=C(N)N)C(=O)N[C@H](C=O)CCCN=C(N)N (Bz-[Nle][NMeK]RR-aldehyde) | 113 µM |
| CCCC[C@H](NC(=O)c1ccccc1)C(=O)N[C@H](CCCCN)C(=O)N[C@@H](CCCN=C(N)N)C(=O)N[C@H](C=O)CCCN=C(N)N (Bz-[Nle][dK]RR-aldehyde) | 28.6 µM |
| CCCC[C@@H](NC(=O)c1ccccc1)C(=O)N[C@@H](CCCCN)C(=O)N[C@@H](CCCN=C(N)N)C(=O)N[C@H](C=O)CCCN=C(N)N (Bz-[dNle]KRR-aldehyde) | 9.4 µM |
